The values below come from patent publication US11028088B2, “Modulators of BTK proteolysis and methods of use” (Yale University, priority 2018, dated 2021).

Where a name gives a salt, the structure may show the parent alone.

For one assay, the target named is T1, MKK7 (Homo sapiens, UniProt O14733).
T1 construct: purchased DiscoverX (KINOMEscan service)
T1 sequence (O14733 1-419): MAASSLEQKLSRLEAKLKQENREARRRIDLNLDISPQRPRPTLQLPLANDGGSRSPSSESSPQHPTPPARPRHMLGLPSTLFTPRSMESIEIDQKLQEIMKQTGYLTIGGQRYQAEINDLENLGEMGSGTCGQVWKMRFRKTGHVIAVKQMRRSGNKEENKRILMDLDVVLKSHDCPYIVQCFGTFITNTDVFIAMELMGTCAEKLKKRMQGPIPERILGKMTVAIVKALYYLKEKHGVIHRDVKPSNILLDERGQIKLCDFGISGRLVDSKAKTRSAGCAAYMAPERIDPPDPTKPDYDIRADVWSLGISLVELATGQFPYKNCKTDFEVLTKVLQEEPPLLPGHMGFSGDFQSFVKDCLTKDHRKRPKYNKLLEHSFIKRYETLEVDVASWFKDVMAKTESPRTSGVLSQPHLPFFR
Nature of the assay: KINOMEscan competition binding assay, MKK7. The settings on record: read-out: KINOMEscan percentage of control, MKK7.

Another assay has as its target T2, JAK3 (Homo sapiens, UniProt P52333).
T2 construct: purchased DiscoverX (KINOMEscan service)
The experiment in a line: KINOMEscan competition binding assay, JAK3. The conditions noted are these: read-out: KINOMEscan percentage of control, JAK3.

Another assay addresses T3, ITK (Homo sapiens, UniProt Q08881).
T3 sequence (Q08881 1-620): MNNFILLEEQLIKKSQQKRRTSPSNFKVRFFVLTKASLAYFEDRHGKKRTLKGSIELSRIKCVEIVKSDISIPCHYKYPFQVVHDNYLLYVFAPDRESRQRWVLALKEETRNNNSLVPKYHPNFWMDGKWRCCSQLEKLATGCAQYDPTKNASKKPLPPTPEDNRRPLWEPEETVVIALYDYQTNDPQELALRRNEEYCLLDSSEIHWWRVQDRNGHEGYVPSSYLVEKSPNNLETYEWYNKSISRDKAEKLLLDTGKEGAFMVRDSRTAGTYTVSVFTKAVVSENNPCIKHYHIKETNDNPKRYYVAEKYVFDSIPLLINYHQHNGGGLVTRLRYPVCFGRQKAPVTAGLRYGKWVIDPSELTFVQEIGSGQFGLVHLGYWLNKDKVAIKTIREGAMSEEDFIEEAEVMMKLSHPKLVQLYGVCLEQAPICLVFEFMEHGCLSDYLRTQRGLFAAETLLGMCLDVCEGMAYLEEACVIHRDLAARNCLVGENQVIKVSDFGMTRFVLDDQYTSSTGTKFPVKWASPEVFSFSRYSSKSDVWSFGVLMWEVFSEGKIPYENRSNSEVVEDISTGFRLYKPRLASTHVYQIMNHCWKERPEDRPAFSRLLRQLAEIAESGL
Nature of the assay: KINOMEscan competition binding assay, ITK. On the set-up: purchased DiscoverX (KINOMEscan service). The settings on record: read-out: KINOMEscan percentage of control, ITK.

The next assay addresses T4, TEC (Homo sapiens, UniProt P42680).
T4 sequence (P42680 1-631): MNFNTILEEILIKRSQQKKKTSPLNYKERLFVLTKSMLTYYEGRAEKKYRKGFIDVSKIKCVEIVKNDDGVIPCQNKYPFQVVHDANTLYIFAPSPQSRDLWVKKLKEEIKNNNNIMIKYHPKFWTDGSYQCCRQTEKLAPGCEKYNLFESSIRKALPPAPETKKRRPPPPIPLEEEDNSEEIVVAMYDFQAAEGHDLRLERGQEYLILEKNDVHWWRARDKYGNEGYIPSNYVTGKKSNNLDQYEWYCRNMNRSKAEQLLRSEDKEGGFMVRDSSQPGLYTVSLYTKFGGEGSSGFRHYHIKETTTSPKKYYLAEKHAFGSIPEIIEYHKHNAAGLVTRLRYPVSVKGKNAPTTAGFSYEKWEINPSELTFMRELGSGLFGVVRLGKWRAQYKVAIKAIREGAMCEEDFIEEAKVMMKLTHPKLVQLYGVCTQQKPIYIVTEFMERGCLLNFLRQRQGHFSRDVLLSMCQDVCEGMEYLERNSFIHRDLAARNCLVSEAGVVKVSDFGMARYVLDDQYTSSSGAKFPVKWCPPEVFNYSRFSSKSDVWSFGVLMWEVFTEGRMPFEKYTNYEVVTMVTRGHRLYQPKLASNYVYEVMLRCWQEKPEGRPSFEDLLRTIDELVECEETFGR
The experiment in a line: KINOMEscan competition binding assay, TEC. The settings on record: read-out: KINOMEscan percentage of control, TEC.

The target of the next assay is BLK (Homo sapiens, UniProt P51451). The experiment in a line: KINOMEscan competition binding assay, BLK. The settings on record: read-out: KINOMEscan percentage of control, BLK.
Chain of BLK (P51451 whole entry): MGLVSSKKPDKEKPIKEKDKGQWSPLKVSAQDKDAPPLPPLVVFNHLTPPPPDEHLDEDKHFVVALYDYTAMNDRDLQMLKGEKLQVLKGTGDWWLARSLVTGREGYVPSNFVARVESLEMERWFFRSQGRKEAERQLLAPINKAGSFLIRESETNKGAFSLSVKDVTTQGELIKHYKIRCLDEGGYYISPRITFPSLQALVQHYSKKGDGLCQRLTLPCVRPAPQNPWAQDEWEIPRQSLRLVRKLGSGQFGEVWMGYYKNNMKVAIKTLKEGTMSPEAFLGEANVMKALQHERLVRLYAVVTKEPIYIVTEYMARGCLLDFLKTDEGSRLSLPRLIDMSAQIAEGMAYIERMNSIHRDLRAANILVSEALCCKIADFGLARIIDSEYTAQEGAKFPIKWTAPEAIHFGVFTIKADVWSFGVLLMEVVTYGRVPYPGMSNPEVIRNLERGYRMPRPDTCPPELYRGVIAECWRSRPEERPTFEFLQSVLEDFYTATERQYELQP
In the next assay the target is C481S BTK (Homo sapiens, UniProt Q06187, C481S). The experiment in a line: In vitro kinase inhibition, recombinant C481S BTK, 10 μM ATP.
Chain of C481S BTK (Q06187 whole entry C481S): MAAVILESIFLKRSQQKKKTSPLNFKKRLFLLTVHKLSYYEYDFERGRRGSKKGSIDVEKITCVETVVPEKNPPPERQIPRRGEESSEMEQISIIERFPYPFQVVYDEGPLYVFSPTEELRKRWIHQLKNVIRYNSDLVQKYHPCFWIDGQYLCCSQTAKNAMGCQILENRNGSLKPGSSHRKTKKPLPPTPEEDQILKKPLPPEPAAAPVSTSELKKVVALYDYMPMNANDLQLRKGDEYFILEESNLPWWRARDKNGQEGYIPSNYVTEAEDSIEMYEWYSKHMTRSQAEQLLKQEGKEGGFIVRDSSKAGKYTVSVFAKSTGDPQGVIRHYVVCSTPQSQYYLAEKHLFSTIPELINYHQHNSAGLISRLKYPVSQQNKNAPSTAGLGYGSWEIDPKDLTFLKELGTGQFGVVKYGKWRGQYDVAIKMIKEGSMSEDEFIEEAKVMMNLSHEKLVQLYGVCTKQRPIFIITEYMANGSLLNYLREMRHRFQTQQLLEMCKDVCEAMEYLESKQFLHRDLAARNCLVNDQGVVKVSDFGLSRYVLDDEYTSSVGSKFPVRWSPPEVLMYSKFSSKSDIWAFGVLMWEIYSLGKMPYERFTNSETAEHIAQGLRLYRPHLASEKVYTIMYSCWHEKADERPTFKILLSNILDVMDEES

T2 sequence (P52333 811-1124 limits assumed): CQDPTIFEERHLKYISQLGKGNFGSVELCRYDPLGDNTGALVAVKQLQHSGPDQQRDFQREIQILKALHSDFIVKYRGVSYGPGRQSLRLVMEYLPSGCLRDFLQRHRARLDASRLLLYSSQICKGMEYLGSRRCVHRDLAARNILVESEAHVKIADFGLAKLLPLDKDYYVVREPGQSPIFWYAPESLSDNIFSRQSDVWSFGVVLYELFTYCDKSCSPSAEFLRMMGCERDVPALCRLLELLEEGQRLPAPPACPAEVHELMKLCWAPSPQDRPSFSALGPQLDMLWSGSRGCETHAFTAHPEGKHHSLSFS

Regarding `C=CC(=O)N1CCC[C@@H](n2nc(-c3ccc(Oc4ccccc4)cc3)c3c(N)ncnc32)C1` [ibrutinib, reference compound], the remaining binding at 1 µM is < 10% on MKK7; < 10% on JAK3; < 10% at ITK; 1.9% at TEC; 0.1% at BLK.

Consider `Nc1ncnc2c1c(-c1ccc(Oc3ccccc3)cc1)nn2C1CCNCC1` [compound 1, 3-(4-phenoxyphenyl)-1-(piperidin-4-yl)-1H-pyrazolo[3,4-d]pyrimidin-4-amine hydrochloride, reference compound], for which the “inhibition potency against C481S mutant BTK” value at C481S BTK was “retained inhibition potency”.
